In ChEMBL document CHEMBL1201862, “PubChem BioAssay data set” (2004):
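Dose response: 5 concentrations. Exposure: 48 h. Format: 96-well plates. Endpoint: linear interpolation; highest concentration if not reached. Here, GI50 denotes the concentration required for 50% inhibition of growth.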 Activity calls are given as the source filed them. Cut-off read from the data, not from the text of the source: active = GI50 up to about 1.1 µM and inactive = higher.

Key:
Test in all cases: DTP human tumour cell line panel, 48 h
SN12C = system: SN12C
OVCAR-5 = system: OVCAR-5
SF-539 = system: SF-539
786-0 = system: 786-0
A549 = system: A549
MOLT-4 = system: MOLT-4
SNB-75 = system: SNB-75
SW-620 = system: SW-620
LXFL 529 = system: LXFL 529
DMS-114 = system: DMS-114
UACC-257 = system: UACC-257
RXF 393 = system: RXF 393
KM12 = system: KM12
M14 = system: M14
COLO 205 = system: COLO 205
KM-20L2 = system: KM-20L2
RPMI-8226 = system: RPMI-8226
NCI-H460 = system: NCI-H460
IGROV-1 = system: IGROV-1
TK-10 = system: TK-10
HT-29 = system: HT-29
HOP-62 = system: HOP-62
NCI-H23 = system: NCI-H23
HOP-18 = system: HOP-18
CCRF-CEM = system: CCRF-CEM
SF-268 = system: SF-268
SK-MEL-5 = system: SK-MEL-5
EKVX = system: EKVX
SR = system: SR
HCT-116 = system: HCT-116
HOP-92 = system: HOP-92
CAKI-1 = system: CAKI-1
U-251 = system: U-251
DLD-1 = system: DLD-1
NCI-H226 = system: NCI-H226
K562 = system: K562
SK-OV-3 = system: SK-OV-3
SK-MEL-2 = system: SK-MEL-2
LOX IMVI = system: LOX IMVI
SNB-19 = system: SNB-19
SF-295 = system: SF-295
NCI-H522 = system: NCI-H522
DMS-273 = system: DMS-273
ACHN = system: ACHN
HL-60 = system: HL-60
OVCAR-8 = system: OVCAR-8
UO-31 = system: UO-31
HCC 2998 = system: HCC 2998
UACC-62 = system: UACC-62
SNB-78 = system: SNB-78
OVCAR-4 = system: OVCAR-4
OVCAR-3 = system: OVCAR-3
SK-MEL-28 = system: SK-MEL-28
XF498 = system: XF498

Measured: GI50

NC(=O)/N=C1/CCC2C3CCCC2C13
inactive: SN12C > 100 µM | OVCAR-5 > 100 µM | SF-539 > 100 µM | 786-0 > 100 µM | A549 > 100 µM | MOLT-4 > 100 µM | SNB-75 > 100 µM | SW-620 > 100 µM | LXFL 529 > 100 µM | DMS-114 > 100 µM | UACC-257 > 100 µM | RXF 393 > 100 µM | KM12 > 100 µM | M14 > 100 µM | COLO 205 > 100 µM | KM-20L2 > 100 µM | RPMI-8226 > 100 µM | NCI-H460 > 100 µM | IGROV-1 > 100 µM | TK-10 > 100 µM | HT-29 > 100 µM | HOP-62 > 100 µM | NCI-H23 > 100 µM | HOP-18 > 100 µM | CCRF-CEM > 100 µM | SF-268 > 100 µM | SK-MEL-5 > 100 µM | EKVX > 100 µM | SR > 100 µM | HCT-116 > 100 µM | HOP-92 > 100 µM | CAKI-1 > 100 µM | U-251 > 100 µM | DLD-1 > 100 µM | NCI-H226 81.5 µM | K562 > 100 µM | SK-OV-3 > 100 µM | SK-MEL-2 60.7 µM | LOX IMVI > 100 µM | SNB-19 > 100 µM | SF-295 > 100 µM | NCI-H522 > 100 µM | DMS-273 > 100 µM | ACHN > 100 µM | HL-60 > 100 µM | OVCAR-8 > 100 µM | UO-31 > 100 µM | HCC 2998 > 100 µM | UACC-62 > 100 µM | SNB-78 > 100 µM | OVCAR-4 > 100 µM | OVCAR-3 > 100 µM | SK-MEL-28 > 100 µM | XF498 > 100 µM
